Converted amounts (≈) assume the structure as drawn.
Key:
Format in all cases: cell-based
Bacillus subtilis A = test: MIC, DST agar + 10% horse blood; conditions: Bacillus subtilis A; DST agar + 10% horse blood; inoculum 0.001 ml of an undilute overnight broth culture; unit inferred; read-out: MIC Agar
Description: (§1) The ninimum inhibitory concentrations (MIC) cf this compound required to inhibit the growth of various bacteria are tabulated balow: […]

Citrobacter freundii E8 [1] = test: MIC, DST agar + 10% horse blood; conditions: Citrobacter freundii, E8, read-out: MIC Agar
Description: as §1

E. coli ESS [2] = test: MIC, DST agar + 10% horse blood; conditions: Escherichia coli, inoculum 0.001 ml of an undilute overnight broth culture, unit inferred
Description: as §1

Enterobacter cloacae N1 [3] = test: MIC, DST agar + 10% horse blood; conditions: Enterobacter cloacae N1; DST agar + 10% horse blood; inoculum 0.001 ml of an undilute overnight broth culture; unit inferred; read-out: MIC Agar
Description: as §1

Escherichia coli 0111 [4] = test: MIC, DST agar + 10% horse blood; conditions: Escherichia coli, 0111, inoculum 0.001 ml of an undilute overnight broth culture, unit inferred
Description: as §1

Escherichia coli JT 39 [5] = test: MIC, DST agar + 10% horse blood; conditions: JT39; Escherichia coli JT 39; DST agar + 10% horse blood; inoculum 0.001 ml of an undilute overnight broth culture; unit inferred; read-out: MIC Agar
Description: as §1

Klebsiella aerogenes A [6] = test: MIC, DST agar + 10% horse blood; conditions: Klebsiella aerogenes A; DST agar + 10% horse blood; inoculum 0.001 ml of an undilute overnight broth culture; unit inferred; read-out: MIC Agar
Description: as §1

Proteus mirabilis C977 [7] = test: MIC, DST agar + 10% horse blood; conditions: Proteus mirabilis C977; DST agar + 10% horse blood; inoculum 0.001 ml of an undilute overnight broth culture; unit inferred; read-out: MIC Agar
Description: as §1

Proteus morganii I580 [8] = test: MIC, DST agar + 10% horse blood; conditions: Morganella morganii; Proteus morganii I580; DST agar + 10% horse blood; inoculum 0.001 ml of an undilute overnight broth culture; unit inferred; read-out: MIC Agar
Description: as §1

Proteus rettgeri WM16 = test: MIC, DST agar + 10% horse blood; conditions: Providencia rettgeri; Proteus rettgeri WM16; DST agar + 10% horse blood; inoculum 0.001 ml of an undilute overnight broth culture; unit inferred; read-out: MIC Agar
Description: as §1

Proteus vulgaris W091 = test: MIC, DST agar + 10% horse blood; conditions: W091; Proteus vulgaris WO91; DST agar + 10% horse blood; inoculum 0.001 ml of an undilute overnight broth culture; unit inferred; read-out: MIC Agar
Description: as §1

Pseudomonas aeruginosa A [9] = test: MIC, DST agar + 10% horse blood; conditions: Pseudomonas aeruginosa, read-out: MIC Agar
Description: as §1

[10] = system: Salmonella typhimurium CT10; test: MIC, DST agar + 10% horse blood; conditions: Salmonella enterica, TYPHIMURIUM, read-out: MIC Agar
Description: as §1

Serratia marcescens US20 [11] = test: MIC, DST agar + 10% horse blood; conditions: Serratia marcescens US20; DST agar + 10% horse blood; inoculum 0.001 ml of an undilute overnight broth culture; unit inferred; read-out: MIC Agar
Description: as §1

Shigella sonnei MB 11967 [12] = test: MIC, DST agar + 10% horse blood; conditions: MB11967, inoculum 0.001 ml of an undilute overnight broth culture, unit inferred
Description: as §1

[13] = system: Staphylococcus aureus 1517; test: MIC, DST agar + 10% horse blood; conditions: Staphylococcus aureus 1517; DST agar + 10% horse blood; inoculum 0.001 ml of an undilute overnight broth culture; unit inferred; read-out: MIC Agar
Description: as §1

[14] = system: Staphylococcus aureus Oxford; test: MIC, DST agar + 10% horse blood; conditions: Staphylococcus aureus Oxford; DST agar + 10% horse blood; inoculum 0.001 ml of an undilute overnight broth culture; unit inferred; read-out: MIC Agar
Description: as §1

[15] = system: Staphylococcus aureus Russell; test: MIC, DST agar + 10% horse blood; conditions: Staphylococcus aureus Russell; DST agar + 10% horse blood; inoculum 0.001 ml of an undilute overnight broth culture; unit inferred; read-out: MIC Agar
Description: as §1

Streptococcus faecalis I [16] = test: MIC, DST agar + 10% horse blood; conditions: Enterococcus faecalis; Streptococcus faecalis I; DST agar + 10% horse blood; inoculum 0.001 ml of an undilute overnight broth culture; unit inferred; read-out: MIC Agar
Description: as §1

[17] = system: Streptococcus pneumoniae CN33; test: MIC, DST agar + 10% horse blood; conditions: Streptococcus pneumoniae CN33; DST agar + 10% horse blood; inoculum 0.001 ml of an undilute overnight broth culture; unit inferred; read-out: MIC Agar
Description: as §1

[18] = system: Streptococcus pyogenes CN10; test: MIC, DST agar + 10% horse blood; conditions: Streptococcus pyogenes CN10; DST agar + 10% horse blood; inoculum 0.001 ml of an undilute overnight broth culture; unit inferred; read-out: MIC Agar
Description: as §1

Citrobacter freundii E8 [19] = test: MIC, microtitre using Nutrient broth; conditions: inoculum 0.001 ml of an undilute overnight broth culture, unit inferred
Description: as §1

E. coli ESS [20] = test: MIC, microtitre using Nutrient broth; conditions: Escherichia coli, inoculum 0.001 ml of an undilute overnight broth culture, unit inferred
Description: as §1

Enterobacter cloacae N1 [21] = test: MIC, microtitre using Nutrient broth; conditions: Microtitre using Nutrient broth, inoculum 0.001 ml of an undilute overnight broth culture, unit inferred
Description: as §1

Escherichia coli 0111 [22] = test: MIC, microtitre using Nutrient broth; conditions: Microtitre using Nutrient broth, inoculum 0.001 ml of an undilute overnight broth culture, unit inferred
Description: as §1

Escherichia coli JT 39 [23] = test: MIC, microtitre using Nutrient broth; conditions: JT39; Escherichia coli JT 39; Microtitre using Nutrient broth; inoculum 0.001 ml of an undilute overnight broth culture; unit inferred; read-out: MIC Broth
Description: as §1

Klebsiella aerogenes A [24] = test: MIC, microtitre using Nutrient broth; conditions: Klebsiella aerogenes A; Microtitre using Nutrient broth; inoculum 0.001 ml of an undilute overnight broth culture; unit inferred; read-out: MIC Broth
Description: as §1

Proteus mirabilis C977 [25] = test: MIC, microtitre using Nutrient broth; conditions: Proteus mirabilis C977; Microtitre using Nutrient broth; inoculum 0.001 ml of an undilute overnight broth culture; unit inferred; read-out: MIC Broth
Description: as §1

Proteus morganii I580 [26] = test: MIC, microtitre using Nutrient broth; conditions: Morganella morganii, inoculum 0.001 ml of an undilute overnight broth culture, unit inferred
Description: as §1

Pseudomonas aeruginosa A [27] = test: MIC, microtitre using Nutrient broth; conditions: Pseudomonas aeruginosa; Pseudomanas aeruginosa A; Microtitre using Nutrient broth; inoculum 0.001 ml of an undilute overnight broth culture; unit inferred; read-out: MIC Broth
Description: as §1

Serratia marcescens US20 [28] = test: MIC, microtitre using Nutrient broth; conditions: inoculum 0.001 ml of an undilute overnight broth culture, unit inferred
Description: as §1

Shigella sonnei MB 11967 [29] = test: MIC, microtitre using Nutrient broth; conditions: MB11967, inoculum 0.001 ml of an undilute overnight broth culture, unit inferred
Description: as §1

[30] = system: Staphylococcus aureus Oxford; test: MIC, microtitre using Nutrient broth; conditions: Staphylococcus aureus Oxford; Microtitre using Nutrient broth; inoculum 0.001 ml of an undilute overnight broth culture; unit inferred; read-out: MIC Broth
Description: as §1

[31] = system: Staphylococcus aureus Russell; test: MIC, microtitre using Nutrient broth; conditions: Staphylococcus aureus Russell; Microtitre using Nutrient broth; inoculum 0.001 ml of an undilute overnight broth culture; unit inferred; read-out: MIC Broth
Description: as §1

Streptococcus faecalis I [32] = test: MIC, microtitre using Nutrient broth; conditions: Enterococcus faecalis, inoculum 0.001 ml of an undilute overnight broth culture, unit inferred
Description: as §1

[33] = system: Streptococcus pyogenes CN10; test: MIC, microtitre using Nutrient broth; conditions: inoculum 0.001 ml of an undilute overnight broth culture, unit inferred
Description: as §1

NCC1=C(C(=O)O)N2C(=O)C[C@H]2S1 [compound 37, 2-Aminomethylpenem-3-carboxylic acid]
MIC (Bacillus subtilis A): 2.5 µg/mL
MIC (Citrobacter freundii E8 [1]): 12.5 µg/mL
MIC (E. coli ESS [2]): 5 µg/mL
MIC (Enterobacter cloacae N1 [3]): 50 µg/mL
MIC (Escherichia coli 0111 [4]): 25 µg/mL
MIC (Escherichia coli JT 39 [5]): 50 µg/mL
MIC (Klebsiella aerogenes A [6]): 50 µg/mL
MIC (Proteus mirabilis C977 [7]): 25 µg/mL
MIC (Proteus morganii I580 [8]): > 50 µg/mL
MIC (Proteus rettgeri WM16): > 50 µg/mL
MIC (Proteus vulgaris W091): > 50 µg/mL
MIC (Pseudomonas aeruginosa A [9]): 12.5 µg/mL
MIC [10]: 12.5 µg/mL
MIC (Serratia marcescens US20 [11]): 25 µg/mL
MIC (Shigella sonnei MB 11967 [12]): 12.5 µg/mL
MIC [13]: > 50 µg/mL
MIC [14]: 5 µg/mL
MIC [15]: 5 µg/mL
MIC (Streptococcus faecalis I [16]): > 50 µg/mL
MIC [17]: 0.5 µg/mL
MIC [18]: 1.25 µg/mL
MIC (Citrobacter freundii E8 [19]): 0.5 µg/mL (≈ 2.5 µM)
MIC (E. coli ESS [20]): 4 µg/mL (≈ 20 µM)
MIC (Enterobacter cloacae N1 [21]): 16 µg/mL (≈ 79.9 µM)
MIC (Escherichia coli 0111 [22]): 8 µg/mL (≈ 40 µM)
MIC (Escherichia coli JT 39 [23]): 16 µg/mL (≈ 79.9 µM)
MIC (Klebsiella aerogenes A [24]): 8 µg/mL (≈ 40 µM)
MIC (Proteus mirabilis C977 [25]): 8 µg/mL (≈ 40 µM)
MIC (Proteus morganii I580 [26]): 16 µg/mL (≈ 79.9 µM)
MIC (Pseudomonas aeruginosa A [27]): 1 µg/mL (≈ 4.99 µM)
MIC (Serratia marcescens US20 [28]): 16 µg/mL (≈ 79.9 µM)
MIC (Shigella sonnei MB 11967 [29]): 4 µg/mL (≈ 20 µM)
MIC [30]: 2 µg/mL (≈ 9.99 µM)
MIC [31]: 4 µg/mL (≈ 20 µM)
MIC (Streptococcus faecalis I [32]): 62 µg/mL (≈ 310 µM)
MIC [33]: 1 µg/mL (≈ 4.99 µM)

Source: EP0013067A1, “Bicyclic beta-lactam antibacterial agents, their use in pharmaceutical compositions, processes for their preparation and intermediates for use in such processes” (BEECHAM GROUP PLC, priority 1978, dated 1980)
